Experimental data reported in PMC4412158 (Nature chemical biology, 2014).

Target: T1, phosphoglycerate kinase 1 (hPGK1) (Homo sapiens, UniProt P00558)
T1 sequence (P00558 2-417): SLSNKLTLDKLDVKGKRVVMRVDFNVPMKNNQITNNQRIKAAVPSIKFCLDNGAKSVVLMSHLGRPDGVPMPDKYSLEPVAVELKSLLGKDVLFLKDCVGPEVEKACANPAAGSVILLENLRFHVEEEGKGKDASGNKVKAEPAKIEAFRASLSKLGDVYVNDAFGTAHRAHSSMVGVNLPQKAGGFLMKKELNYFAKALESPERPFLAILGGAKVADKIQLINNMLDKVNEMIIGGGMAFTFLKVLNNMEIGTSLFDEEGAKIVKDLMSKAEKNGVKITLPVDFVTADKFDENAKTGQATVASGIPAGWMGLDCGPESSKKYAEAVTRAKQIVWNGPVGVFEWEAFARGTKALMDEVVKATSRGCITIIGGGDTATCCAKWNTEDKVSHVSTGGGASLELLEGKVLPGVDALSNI
Experiment: co-crystal structure hPGK1-3PG-TZ at […] Å
Format: binding

`COc1cc2nc(N3CCN(C(=O)C4CCCO4)CC3)nc(N)c2cc1OC` (racemic) [TZ, terazosin] was tested, and the “co-crystal structure hPGK1-3PG-TZ at 2.1 Å” value was “we obtained the ternary co-crystallization complexes for both the mouse and the human Pgk1-3PG-TZ”.
